Measured values as given in patent US20260053834A1, “COVALENT MODIFIERS OF AKT1 AND USES THEREOF” (Terremoto Biosciences, Inc., priority 2023, published 2026).

Assays:
[1] = tested on: LAPC4 prostate cancer cells, which express the AKT1 E17K allele; assay: Antiproliferative effects in LAPC4 cells (CellTiter Glo, 72 h); type: cell-based; conditions: Homo sapiens, LAPC4, 72 h, read-out: LAPC4 proliferation IC50: GeoMean IC50
Method in brief: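 Cells grown in IMDM with 12% FBS, seeded at 1,000 cells/well and treated with compound dilutions in DMSO for 72 h. Intracellular ATP read by luminescence. IC50 from a log(inhibitor) vs. response Hill fit.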

AKT1 E17K = molecular target: T1, AKT1 E17K (Homo sapiens, UniProt P31749, E17K); assay: Live cell target engagement by NanoBRET competitive probe displacement, AKT1 E17K; type: binding; conditions: transfected HEK293 cells, 2 h at 37° C., read-out: AKT1 E17K IC50: GeoMean IC50
T1 construct: expressed in transfected cells; host or cells: HEK293

AKT2 = molecular target: T2, AKT2 (Homo sapiens, UniProt P31751); assay: Live cell target engagement by NanoBRET competitive probe displacement, AKT2; type: binding; conditions: transfected HEK293 cells, 2 h at 37° C., read-out: AKT2 IC50: GeoMean IC50
T2 construct: expressed in transfected cells; host or cells: HEK293

AKT1 WT = molecular target: T3, AKT1 WT (Homo sapiens, UniProt P31749); assay: Live cell target engagement by NanoBRET competitive probe displacement, AKT1 WT; type: binding; conditions: transfected HEK293 cells, 2 h at 37° C., read-out: AKT1 WT IC50: GeoMean IC50
T3 construct: expressed in transfected cells; host or cells: HEK293
T3 sequence (P31749 whole entry): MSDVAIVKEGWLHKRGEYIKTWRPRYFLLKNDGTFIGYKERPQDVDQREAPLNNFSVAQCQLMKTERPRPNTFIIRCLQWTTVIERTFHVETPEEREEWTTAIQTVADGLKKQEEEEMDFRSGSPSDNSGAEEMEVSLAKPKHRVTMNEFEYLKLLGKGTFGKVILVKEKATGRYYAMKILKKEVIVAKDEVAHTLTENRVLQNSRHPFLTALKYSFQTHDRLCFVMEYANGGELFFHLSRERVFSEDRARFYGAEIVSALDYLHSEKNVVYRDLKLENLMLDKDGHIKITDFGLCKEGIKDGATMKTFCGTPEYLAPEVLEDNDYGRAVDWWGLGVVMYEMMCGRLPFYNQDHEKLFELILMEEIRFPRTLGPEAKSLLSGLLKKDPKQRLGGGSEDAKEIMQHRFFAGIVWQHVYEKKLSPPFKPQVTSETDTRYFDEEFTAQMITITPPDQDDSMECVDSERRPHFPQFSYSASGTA

T1 sequence (P31749 whole entry E17K): as the sequence (P31749 whole entry) above, with E17K counted along it
T2 sequence (P31751 whole entry): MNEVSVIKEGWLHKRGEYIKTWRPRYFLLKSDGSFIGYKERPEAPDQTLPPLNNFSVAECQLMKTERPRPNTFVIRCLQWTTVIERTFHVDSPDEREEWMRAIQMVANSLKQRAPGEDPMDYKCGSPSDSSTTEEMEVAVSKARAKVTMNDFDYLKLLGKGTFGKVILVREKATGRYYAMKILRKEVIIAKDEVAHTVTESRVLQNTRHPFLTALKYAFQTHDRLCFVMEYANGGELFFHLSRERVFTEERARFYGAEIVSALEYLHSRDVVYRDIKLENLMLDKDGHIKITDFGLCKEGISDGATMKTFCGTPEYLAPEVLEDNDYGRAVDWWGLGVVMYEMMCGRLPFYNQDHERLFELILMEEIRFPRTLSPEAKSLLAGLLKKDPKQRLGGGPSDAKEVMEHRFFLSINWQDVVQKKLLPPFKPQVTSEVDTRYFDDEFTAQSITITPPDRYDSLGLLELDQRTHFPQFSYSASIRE

Row | IC50 [1] [nM] | IC50 (AKT1 E17K) [nM] | IC50 (AKT2) [nM] | IC50 (AKT1 WT) [nM] | Compound
1 | 10 to 100 | 10 to 100 | 100 to 2000 | 10 to 100 | Cc1ccn(-c2ccc3nc(-c4cccnc4N)n(-c4ccc5c(c4)CC[C@@H]5NC(=O)c4ccc(O)c(C=O)c4)c3n2)n1 [Example 95, N-[(1S)-5-[2-(2-aminopyridin-3-yl)-5-(3-methylpyrazol-1-yl)imidazo[4,5-b]pyridin-3-yl]-2,3-dihydro-1H-inden-1-yl]-3-formyl-4-hydroxybenzamide]
2 | 100 to 2000 | 10 to 100 | 100 to 2000 | 100 to 2000 | Nc1ncccc1-c1nc2ccc(-n3ccc(Cl)n3)nc2n1-c1ccc2c(c1)CC[C@@H]2NC(=O)c1ccc(O)c(C=O)c1 [Example 96, (S)—N-(5-(2-(2-aminopyridin-3-yl)-5-(3-chloro-1H-pyrazol-1-yl)-3H-imidazo[4,5-b]pyridin-3-yl)-2,3-dihydro-1H-inden-1-yl)-3-formyl-4-hydroxybenzamide]
3 | 100 to 2000 | 10 to 100 | 100 to 2000 | 100 to 2000 | Nc1ncccc1-c1nc2ccc(-n3cncn3)nc2n1-c1ccc2c(c1)CC[C@@H]2NC(=O)c1ccc(O)c(C=O)c1 [Example 97, N-[(1S)-5-[2-(2-aminopyridin-3-yl)-5-(1,2,4-triazol-1-yl)imidazo[4,5-b]pyridin-3-yl]-2,3-dihydro-1H-inden-1-yl]-3-formyl-4-hydroxybenzamide]
4 | 100 to 2000 | 10 to 100 | 100 to 2000 | 100 to 2000 | Nc1ncccc1-c1nc2ccc(-n3cccn3)nc2n1-c1ccc2c(c1)CC[C@@H]2NC(=O)c1cc(C=O)c(O)c(C(F)(F)F)c1 [Example 100, N-[(1S)-5-[2-(2-aminopyridin-3-yl)-5-(pyrazol-1-yl)imidazo[4,5-b]pyridin-3-yl]-2,3-dihydro-1H-inden-1-yl]-3-formyl-4-hydroxy-5-(trifluoromethyl)benzamide]
5 | 100 to 2000 | 10 to 100 | 100 to 2000 | 10 to 100 | C#Cc1cc(C(=O)N[C@H]2CCc3cc(-n4c(-c5cccnc5N)nc5ccc(-n6cccn6)nc54)ccc32)cc(C=O)c1O [Example 101, N-[(1S)-5-[2-(2-aminopyridin-3-yl)-5-(pyrazol-1-yl)imidazo[4,5-b]pyridin-3-yl]-2,3-dihydro-1H-inden-1-yl]-3-ethynyl-5-formyl-4-hydroxybenzamide]
6 | 100 to 2000 | 10 to 100 | 10 to 100 | 10 to 100 | CC(=O)c1cc(C(=O)N[C@H]2CCc3cc(-n4c(-c5cccnc5N)nc5ccc(-n6cccn6)nc54)ccc32)cc(C=O)c1O [Example 102, (S)-3-acetyl-N-(5-(2-(2-aminopyridin-3-yl)-5-(1H-pyrazol-1-yl)-3H-imidazo[4,5-b]pyridin-3-yl)-2,3-dihydro-1H-inden-1-yl)-5-formyl-4-hydroxybenzamide]
7 | 10 to 100 | 10 to 100 | 100 to 2000 | 10 to 100 | Nc1ncccc1-c1nc2ccc(-c3cnccn3)nc2n1-c1ccc2c(c1)CC[C@@H]2NC(=O)c1cc(C=O)c(O)c(F)c1F [Example 103, N-[(1S)-5-[2-(2-aminopyridin-3-yl)-5-(pyrazin-2-yl)imidazo[4,5-b]pyridin-3-yl]-2,3-dihydro-1H-inden-1-yl]-2,3-difluoro-5-formyl-4-hydroxybenzamide]
8 | < 10 | < 10 | 100 to 2000 | 10 to 100 | CN(C)C(=O)Nc1ccc(C(=O)N[C@H]2CCc3cc(-n4c(-c5cccnc5N)nc5ccc(-n6cccn6)nc54)ccc32)cc1C=O [Example 104, N-[(1S)-5-[2-(2-aminopyridin-3-yl)-5-(pyrazol-1-yl)imidazo[4,5-b]pyridin-3-yl]-2,3-dihydro-1H-inden-1-yl]-4-[(dimethylcarbamoyl)amino]-3-formylbenzamide]
9 | 10 to 100 | 10 to 100 | 100 to 2000 | 10 to 100 | Nc1ncccc1-c1nc2ccc(-n3cccn3)nc2n1-c1ccc2c(c1)CC[C@@H]2NC(=O)c1cc(C=O)c(O)cc1F [Example 105, (S)—N-(5-(2-(2-aminopyridin-3-yl)-5-(1H-pyrazol-1-yl)-3H-imidazo[4,5-b]pyridin-3-yl)-2,3-dihydro-1H-inden-1-yl)-2-fluoro-5-formyl-4-hydroxybenzamide]
10 | 10 to 100 | 10 to 100 | 100 to 2000 | 10 to 100 | COc1ccn(-c2ccc3nc(-c4cccnc4N)n(-c4ccc5c(c4)CC[C@@H]5NC(=O)c4ccc(O)c(C=O)c4)c3n2)n1 [Example 106, N-[(1S)-5-[2-(2-aminopyridin-3-yl)-5-(3-methoxypyrazol-1-yl)imidazo[4,5-b]pyridin-3-yl]-2,3-dihydro-1H-inden-1-yl]-3-formyl-4-hydroxybenzamide]
11 | 100 to 2000 | 10 to 100 | ≥ 2000 | 100 to 2000 | N#Cc1ccn(-c2ccc3nc(-c4cccnc4N)n(-c4ccc5c(c4)CC[C@@H]5NC(=O)c4ccc(O)c(C=O)c4)c3n2)n1 [Example 108, N-[(1S)-5-[2-(2-aminopyridin-3-yl)-5-(3-cyanopyrazol-1-yl)imidazo[4,5-b]pyridin-3-yl]-2,3-dihydro-1H-inden-1-yl]-3-formyl-4-hydroxybenzamide]
12 | 100 to 2000 | 10 to 100 | 100 to 2000 | 100 to 2000 | Nc1ncccc1-c1nc2ccc(-c3nccnc3F)nc2n1-c1ccc2c(c1)CC[C@@H]2NC(=O)c1ccc(O)c(C=O)c1 [Example 109, N-[(1S)-5-[2-(2-aminopyridin-3-yl)-5-(3-fluoropyrazin-2-yl)imidazo[4,5-b]pyridin-3-yl]-2,3-dihydro-1H-inden-1-yl]-3-formyl-4-hydroxybenzamide]
13 | 100 to 2000 | 10 to 100 | 100 to 2000 | 10 to 100 | Nc1ncccc1-c1nc2ccc(-n3cccn3)nc2n1-c1ccc2c(c1)CC[C@@H]2NC(=O)c1cc(C=O)c(O)c(F)c1Cl [Example 110, N-[(1S)-5-[2-(2-aminopyridin-3-yl)-5-(pyrazol-1-yl)imidazo[4,5-b]pyridin-3-yl]-2,3-dihydro-1H-inden-1-yl]-2-chloro-3-fluoro-5-formyl-4-hydroxybenzamide]
14 | ≥ 2000 | 100 to 2000 | ≥ 2000 | 100 to 2000 | CS(=O)(=O)Nc1ncc(C(=O)N[C@H]2CCc3cc(-n4c(-c5cccnc5N)nc5ccc(-n6cccn6)nc54)ccc32)cc1C=O [Example 111, N-[(1S)-5-[2-(2-aminopyridin-3-yl)-5-(pyrazol-1-yl)imidazo[4,5-b]pyridin-3-yl]-2,3-dihydro-1H-inden-1-yl]-5-formyl-6-methanesulfonamidopyridine-3-carboxamide]
15 | ≥ 2000 | 10 to 100 | 100 to 2000 | 10 to 100 | C#Cc1c(C(=O)N[C@H]2CCc3cc(-n4c(-c5cccnc5N)nc5ccc(-n6cccn6)nc54)ccc32)ccc(O)c1C=O [Example 112, N-[(1S)-5-[2-(2-aminopyridin-3-yl)-5-(pyrazol-1-yl)imidazo[4,5-b]pyridin-3-yl]-2,3-dihydro-1H-inden-1-yl]-2-ethynyl-3-formyl-4-hydroxybenzamide]
